Consider 26 molecules from publication PMC12519464, “Dual-Site Inhibition of SARS-CoV‑2 RNA-Dependent RNA Polymerase by Small Molecules Able to Block Viral Replication Identified through a Computer-Aided Drug Discovery Approach” (ACS Infectious Diseases, 2025).

Where two headings read alike, the source gives them in different places.

The test system of series [1] is SARS-CoV-2 (BetaCov/Belgium/GHB-03021/2020). The series is described as follows: microbe, parasite or virus in culture. The settings on record: Severe acute respiratory syndrome coronavirus 2, Vero C1008, read-out: EC50: compound concentration required to inhibit SARS-CoV-2 replication by 50%.
The nature of series [2]: Compounds cytotoxicity in the Vero E6 cell line. The settings on record: African green monkey, Vero E6 cells stably expressing GFP, with CP-100356 (P-gp inhibitor), 2 μM.
Series [3] has as its system SARS-CoV-2 (BetaCov/Belgium/GHB-03021/2020). Kind of series: in vitro. The settings on record: African green monkey.
Series [4] deals with SARS-CoV-2 nsp12/7/8 (RTC) complex (Severe acute respiratory syndrome coronavirus 2, UniProt P0DTD1). The series is described as follows: biochemical. The class given is biochemical.
A short description of a further series: in vitro. Conditions: African green monkey.
In series [5] the test system is SARS-CoV-2 (BetaCov/Belgium/GHB-03021/2020).
Another series has as its system RNA substrate. Kind of series: Microscale Thermophoresis/Spectral Shift binding assay with RNA substrate (Monolith X). The settings on record: data not shown. Background: In MST a laser heats a spot of the sample, and binding alters the fluorescence response.
Another series deals with SARS-CoV-2 RTC (Severe acute respiratory syndrome coronavirus 2, UniProt P0DTD1). The class given is biochemical. Conditions: competing against RNA or GTP substrates; Lineweaver-Burk plots.
For a further series, the system named is SARS-CoV-2. Conditions: cited from earlier work.
The target of the next series is SARS-CoV-2 minimal RTC (Severe acute respiratory syndrome coronavirus 2, UniProt P0DTD1). The class given is binding.
[6] abbreviates: primer-extension PAGE assay, 150 nM RTC, 5% DMSO, 30 min preincubation at 37 °C, mean and SD of at least 3 independent experiments.
Where [7] appears, read: read-out: IC50: compound concentration required to inhibit by 50% the SARS-CoV-2 RTC enzymatic activity.
Where [8] appears, read: 500 µM compound, Microscale Thermophoresis, Fig. S3.

For `CC(=O)O[C@@H]1CC[C@@]2(C)[C@@H](CC[C@]3(C)[C@@H]2C(=O)C=C2[C@@H]4[C@@H](C)[C@H](C)CC[C@]4(C)CC[C@]23C)[C@@]1(C)C(=O)O` [AKBA, 3-O-Acetyl-11-Keto-Beta-Boswellic Acid], in series [1], the EC50 amounted to 4.81 ± 2.15 µM. Further, the CC50 at 24 h in series [2] is > 100 µM. Besides, the selectivity ratio in series [3] is > 20.8. This molecule also returned an IC50 in series [4] of 4.98 ± 1.44 µM.

For `Cc1oc2c(C)c3oc(=O)c(CCC(=O)N4CCC(C(=O)O)(c5ccccc5)CC4)c(C)c3cc2c1-c1ccccc1` [Cmp_4, 4-phenyl-1-[3-(2,5,9-trimethyl-7-oxo-3-phenylfuro[3,2-g]chromen-6-yl)propanoyl]piperidine-4-carboxylic acid], the EC50 in series [1] was 2.61 ± 0.18 µM. Also, in series [3], the selectivity ratio is > 38.4. The CC50 at 24 h in the series “in vitro” is > 100 µM. In series [4] (setting [6]), this molecule came in with an IC50 of 8.21 ± 4.87 µM. As to `CC(C)C[C@H](NC(=O)OCc1ccccc1)C(=O)N[C@@H](CC1CCNC1=O)C(O)S(=O)(=O)O` (some centres unmarked) [GC376], the EC50 in series [5] (read-out: EC50: compound concentration required to inhibit SARS-CoV-2 replication by 50%) worked out at 0.06 ± 0.03 µM. In the series on Vero E6 GFP, the CC50 was > 100 µM.

For `CC(C)C[C@H](NC(=O)OCc1ccccc1)C(=O)N[C@@H](C[C@@H]1CCNC1=O)C(O)S(=O)(=O)[O-].[Na+]` (some centres unmarked) [GC376], in series [5], the “SI: selective index, ratio of CC50/EC50” value is >5,882. Consider `O=C(O)c1c(Cl)c(Cl)c(Cl)c(Cl)c1-c1c2cc(I)c(=O)c(I)c-2oc2c(I)c(O)c(I)cc12` [Rose bengal], for which the EC50 in [1] was 0.18 ± 0.02 µM; in the series on SARS-CoV-2 (ref previous studies (number not given; probably 25, Rubekina et al.), read-out: EC50, inhibition of SARS-CoV-2 replication), 0.5 µM. Further, the “interaction with RNA substrate” value with RNA substrate is listed as “no evidence of interaction”. For the same molecule, the selectivity ratio in [3] was > 546. Besides, the “mode of inhibition of SARS-CoV-2 RdRp” value on SARS-CoV-2 RTC is “mixed model of inhibition”. Also, the CC50 in “in vitro” was > 100 µM. Also, the IC50 in [4] (setting [6]) was 0.25 ± 0.0036 µM. Take `C[C@H]1O[C@@H](O[C@H]2CC[C@@]3(C)[C@@H](CC[C@]4(C)[C@@H]3C=C[C@]35OC[C@@]6(CCC(C)(C)C[C@H]63)[C@H](O)C[C@]54C)[C@]2(C)CO)[C@H](O)[C@@H](O[C@@H]2O[C@H](CO)[C@@H](O)[C@H](O)[C@H]2O)[C@H]1O` [Saikosaponin D]: in series [4] (setting [7]), the IC50 was > 100 µM. Take `CC1(C)CC[C@]2(C(=O)O)CCC3=C([C@@H](CCl)C[C@@H]4[C@@]5(C)C[C@H](O)[C@H](O)[C@@](C)(C(=O)O)[C@@H]5CC[C@@]34C)[C@@H]2C1` [Senegenin]: the IC50 in [4] (setting [7]) is > 100 µM. For the molecule `C[C@@H]1CC[C@@]2(OC1)O[C@H]1C[C@H]3[C@@H]4CC[C@@H]5C[C@@H](O)CC[C@]5(C)[C@H]4CC[C@]3(C)[C@H]1[C@@H]2C` [Smilagenin, reference compound], the IC50 in series [4] (setting [7]) was > 100 µM. For the molecule `CNc1cccc(NC(=O)N[C@@H]2N=C(c3ccccn3)c3ccccc3N(CC(=O)C(C)(C)C)C2=O)c1` [Sograzepide, reference compound], the IC50 in series [4] (setting [6]) is > 100 µM. The same measure, in the same setting: the result for `C=CC(=O)N1CCN(c2nc(=O)n(-c3c(C)ccnc3C(C)C)c3nc(-c4c(O)cccc4F)c(F)cc23)[C@@H](C)C1` [Sotorasib, reference compound] reads 47 ± 10.6 µM. Turning to `CN(C(=O)c1ccc(F)cc1C(F)(F)F)C1CCN(c2nnc(-c3ccnn3C)c3ccccc23)CC1` [Taladegib, reference compound], the IC50 in series [4] is > 100 µM. Same read-out and setting: the result for `Oc1cccc(-c2c3nc(c(-c4cccc(O)c4)c4ccc([nH]4)c(-c4cccc(O)c4)c4nc(c(-c5cccc(O)c5)c5ccc2[nH]5)CC4)C=C3)c1` [Temoporfin, reference compound] reads > 100 µM. For the molecule `O=C(O[C@@H]1Cc2c(O)cc(O)cc2O[C@@H]1c1cc(=O)c(O)c2c(O)c(O)cc([C@H]3Oc4cc(O)cc(O)c4C[C@H]3O)c2c1)c1cc(O)c(O)c(O)c1` [Theaflavin 3-gallate], the IC50 in series [4] (setting [7]) turned out to be 19.8 ± 3.49 µM. On to `C[C@H]1CC[C@]2(NC1)O[C@H]1C[C@H]3[C@@H]4CC[C@H]5C[C@@H](O)CC[C@]5(C)[C@H]4CC[C@]3(C)[C@H]1[C@@H]2C` [Tomatidine], for which the IC50 in [4] is 51.4 ± 5.58 µM. Take `C[C@@H]1CC[C@]2(C(=O)O)CC[C@]3(C)C(=CC[C@@H]4[C@@]5(C)C[C@@H](O)[C@H](O)C(C)(C)[C@@H]5CC[C@]43C)[C@@H]2[C@]1(C)O` [Tormentic acid]: the IC50 in [4] (setting [7]) was > 100 µM. In the case of `O=C(c1ccccc1Cl)c1cccnc1-c1nnn(Cc2cc(C(F)(F)F)cc(C(F)(F)F)c2)c1-c1ccncc1` [Tradipitant, reference compound], in series [4] (setting [7]), the IC50 is > 100 µM.

For `Cc1cc(Nc2ncnc3ccc(NC4=NC(C)(C)CO4)cc23)ccc1Oc1ccn2ncnc2c1` [Tucatinib, reference compound], the IC50 in series [4] (setting [6]) is > 100 µM.

`CC(C)Oc1ccc(-c2nn([C@@H](C)c3oc4ccc(F)cc4c(=O)c3-c3cccc(F)c3)c3ncnc(N)c23)cc1F` [Umbralisib, reference compound]: in series [4], the IC50 is > 100 µM. On the same count and under the same terms, to `C[C@H]1[C@H](C)CC[C@]2(C(=O)O)CC[C@]3(C)C(=CC[C@@H]4[C@@]5(C)CC[C@H](O)C(C)(C)[C@@H]5CC[C@]43C)[C@H]12` [Ursolic acid, reference compound] belongs > 100 µM; to `C[C@H]1[C@H](C)CC[C@]2(C(=O)O)CC[C@]3(C)C(=CC[C@@H]4[C@@]5(C)CCC(=O)C(C)(C)[C@@H]5CC[C@]43C)[C@H]12` [Ursonic acid], 26.5 ± 12.6 µM. As to `CC1(C)CCC(CN2CCN(c3ccc(C(=O)NS(=O)(=O)c4ccc(NCC5CCOCC5)c([N+](=O)[O-])c4)c(Oc4cnc5[nH]ccc5c4)c3)CC2)=C(c2ccc(Cl)cc2)C1` [Venetoclax], the EC50 is 0.85 ± 0.08 µM in series [1] and 6 µM in the series with SARS-CoV-2 (ref number not printed in the text (probably 27, Milani et al.), read-out: EC50, inhibition of SARS-CoV-2 replication in cell culture). The molecule further showed a response amplitude at SARS-CoV-2 minimal RTC (setting [8]) of 3.9. In addition, the signal-to-noise ratio on SARS-CoV-2 minimal RTC (setting [8]) stood at 7.7. For the same molecule, the “binding check to SARS-CoV-2 minimal RTC” value on SARS-CoV-2 minimal RTC (single concentration of 500 μM of compound) is given as “specific binding”. The selectivity ratio in series [3] was > 118. Further, the “mode of inhibition of SARS-CoV-2 RdRp” value on SARS-CoV-2 RTC is listed as “noncompetitive mode of inhibition”. Also, the CC50 in the series “in vitro” is > 100 µM. The same molecule had an IC50 in [4] (setting [6]) of 2.37 ± 0.42 µM. As for `CC(C)(C)NC(=O)c1ccc(Oc2cc(F)c(CC(=O)O)cc2Cl)c(NS(=O)(=O)c2ccc(C3CC3)cc2Cl)c1` [Vidupiprant, reference compound], the IC50 in series [4] (setting [6]) worked out at 63.5 ± 24.3 µM. On the same count and under the same terms, the result for `Cc1ccc(C(=O)NNC(=O)c2c(C)cccc2Cl)cc1C#Cc1cnc2ccccc2c1` [Vodobatinib, reference compound] reads > 100 µM. Regarding `CCOC(=O)N[C@@H]1CC[C@@H]2[C@@H](C1)C[C@H]1C(=O)O[C@H](C)[C@H]1[C@H]2/C=C/c1ccc(-c2cccc(F)c2)cn1` [Vorapaxar, reference compound], the IC50 in [4] was > 100 µM. As to `CC1(C)[C@@H](O)CC[C@]2(C)[C@H]3CC=C4[C@@H]5C[C@@]6(C)C[C@H](OC6=O)[C@]5(C)CC[C@@]4(C)[C@]3(C)CC[C@@H]12` [Wilforlide A], the IC50 in [4] (setting [7]) was > 100 µM. On to Dryocrassin ABBA, for which, in series [4] (setting [7]), the IC50 came to 14.5 ± 5.46 µM.
